# Test results reported in patent publication US10328093B2, “Anthracycline formulations” (CYTRX CORPORATION, priority 2012, dated 2019).
# Experiment: IV bag solution stability study of DOXO-EMCH API (0.9% NaCl, D5W, LR)
# Format: physicochemical
# Conditions: for solubility: ~2 mg/mL
# Protocol: To analyze DOXO-EMCH's behavior in solution, a reversed-phase (RP) HPLC method for quantitation of DOXO-EMCH and various impurities and degradation products was utilized. Samples (1.0 μL injection volume) were assayed on an HPLC system fitted with a Phenomenex Gemini C18 column 100×2.0 mm, 3 μm at a flow rate of 0.3 mL/min. The mobile phase used was an acetate/acetonitrile gradient. The degradation product EMCH could not be detected using the above HPLC method, and was therefore determined using a liquid chromatography-mass spectrometry (LC-MS) method.
# To obtain baseline data on the stability of DOXO-EMCH at the point of use, a study was designed to determine degradation of DOXO-EMCH when combined with candidate intravenous (IV) bag solutions. IV bag solutions including Dextrose 5% in Water (D5W), Lactated Ringers (LR), and Sodium Chloride Solution 0.9% (Normal Saline; NS) were used. 100 mg of DOXO-EMCH active pharmaceutical ingredient (API) were dissolved in 50 mL of the IV bag solution for a concentration of ˜2 mg/mL DOXO-EMCH API. The IV bag solutions containing API were then aliquoted in glass vials. The vials were stored at 25° C. in a stability chamber for the length of the experiment. Prior to the beginning of the IV bag stability study, all IV bag solutions were tested for pH and the presence of any peaks interfering with DOXO-EMCH or any degradation peaks of interest. Samples were pulled at 0 hr, 2 hr, 4 hr, and 6 hr time intervals and tested for pH and in duplicate by HPLC.
# Tables 8-10 below list the results for the IV bag study using 0.9% NaCl, D5W, and Lactated Ringer's Solution. In summary, the 0.9% NaCl and Lactated Ringer's solutions met the goal of less than 3% doxorubicin over 3-5 hours. […] The sample was opaque and precipitated material visibly settled over a 2-hour period. […] The samples were mixed well before dilution of each sample for HPLC assay, but non-homogeneity of these samples is reflected in the DOXO-EMCH recovery values for those two IV bag solutions. […] The pH for D5W was the lowest of all the IV bag solutions tested.
# [1] = ~2 mg/mL API in 0.9% NaCl IV solution, 25° C., 0 hr
# [2] = ~2 mg/mL API in 0.9% NaCl IV solution, 25° C., 2 hr
# [3] = ~2 mg/mL API in 0.9% NaCl IV solution, 25° C., 4 hr
# [4] = ~2 mg/mL API in 0.9% NaCl IV solution, 25° C., 6 hr
# [5] = ~2 mg/mL API in D5W IV solution, 25° C., 0 hr
# [6] = ~2 mg/mL API in D5W IV solution, 25° C., 2 hr
# [7] = ~2 mg/mL API in D5W IV solution, 25° C., 4 hr
# [8] = ~2 mg/mL API in D5W IV solution, 25° C., 6 hr
# [9] = ~2 mg/mL API in LR IV solution, 25° C., 0 hr
# [10] = ~2 mg/mL API in LR IV solution, 25° C., 2 hr
# [11] = ~2 mg/mL API in LR IV solution, 25° C., 4 hr
# [12] = ~2 mg/mL API in LR IV solution, 25° C., 6 hr
smiles,measurement,setting,value
COc1cccc2c1C(=O)c1c(O)c3c(c(O)c1C2=O)C[C@@](O)(/C(CO)=N/NC(=O)CCCCCN1C(=O)C=CC1=O)C[C@@H]3O[C@H]1C[C@H](N)[C@H](O)[C@H](C)O1.Cl [DOXO-EMCH],doxorubicin over 3-5 hours (goal),"0.9% NaCl IV solution, 25° C.",less than 3%
same,degradation over a 6 hour period,"D5W solution, 25° C.",significant degradation of DOXO-EMCH and formation of doxorubicin
same,doxorubicin over 3-5 hours (goal),"Lactated Ringer's solution, 25° C.",less than 3%
same,solubility,in 0.9% NaCl,not completely soluble
same,solubility,in D5W,completely soluble
same,solubility,in Lactated Ringer's,not completely soluble
same,Doxorubicin,[1],0.3 wt %
same,pH,[1],6.5
same,Doxorubicin,[2],0.9 wt %
same,pH,[2],6.0
same,Doxorubicin,[3],2.1 wt %
same,pH,[3],5.6
same,Doxorubicin,[4],2.6 wt %
same,pH,[4],5.7
same,Doxorubicin,[5],1.6 wt %
same,pH,[5],5.5
same,Doxorubicin,[6],5.8 wt %
same,pH,[6],5.0
same,Doxorubicin,[7],11.2 wt %
same,pH,[7],4.9
same,Doxorubicin,[8],16.8 wt %
same,pH,[8],4.8
same,Doxorubicin,[9],0.2 wt %
same,pH,[9],6.3
same,Doxorubicin,[10],0.5 wt %
same,pH,[10],6.1
same,Doxorubicin,[11],0.9 wt %
same,pH,[11],6.0
same,Doxorubicin,[12],1.6 wt %
same,pH,[12],5.9
